US20240181123A1, “DRUG-ELUTING SUTURE FOR ATTENUATING INFLAMMATION IN WOUNDS” (University of Utah Research Foundation, priority 2022, published 2024)

Type: physicochemical
Description: In another variation of the manufacturing process involving hot-melt extrusion, a mixed/combined composition of the polymer material (often in the form of a powder) and the anti-inflammatory agent is raised to a temperature above the glass transition temperature of the polymer material. The combined composition is then subjected to hot-melt extrusion to form the suture. The temperature during the hot-melt extrusion process preferably remains at or below 140° C. We discovered that tacrolimus begins to degrade at temperatures above this limit. By carrying out the hot-melt extrusion at temperatures at or below 140° C., the process allows for the formation of the suture without causing degradation of the tacrolimus or the polymer material.

## C=CC[C@@H]1/C=C(\C)C[C@H](C)C[C@H](OC)[C@H]2O[C@@](O)(C(=O)C(=O)N3CCCC[C@H]3C(=O)O[C@H](/C(C)=C/[C@@H]3CC[C@@H](O)[C@H](OC)C3)[C@H](C)[C@@H](O)CC1=O)[C@H](C)C[C@@H]2OC [tacrolimus]
  temperature above which tacrolimus begins to degrade: > 140 °C
